Legend:
Assay type in all cases: biochemical
Rhodococcus HPPD2 = assay: HPPD activity assay, Rhodococcus HPPD2; details: normalized on Arabidopsis wild-type HPPD
Protocol: (§1) HPPD produces homogentisic acid and CO2 from 4-hydroxyphenylpyruvate (4-HPP) and O2. The activity assay for HPPD is based on the analysis of homogentisic acid by reversed phase HPLC.
(§2) The assay mixture can contain 150 mM potassium phosphate buffer pH 7.0, 50 mM L-ascorbic acid, 1 μM FeSO4 and 7 μg of purified enzyme in a total volume of 1 ml.
(§3) Inhibitors are dissolved in DMSO (dimethylsulfoxide) to a concentration of 20 mM or 0.5 mM, respectively. From this stock solution serial five-fold dilutions are prepared in DMSO, which are used in the assay. The respective inhibitor solution accounts for 1% of the assay volume. Thus, final inhibitor concentrations range from 200 μM to 2.5 nM or from 5 μM to 63 pM, respectively. After a preincubation of 30 min the reaction is started by adding 4-HPP to a final concentration of 0.1 mM. The reaction is allowed to proceed for 120 min at room temperature. The reaction is stopped by addition of 100 μl of 4.5 M phosphoric acid.
(§4) Activities are normalized by setting the uninhibited enzyme activity to 100%. IC50 values are calculated using non-linear regression.
(§5) The assay mixture can contain 150 mM potassium phosphate buffer pH 7.0, 50 mM L-ascorbic acid, 100 μM Catalase (Sigma-Aldrich), 1 μM FeSO4 and 0.2 units of purified HPPD enzyme in a total volume of 505 μl. […]
(§6) Inhibitors are dissolved in DMSO (dimethylsulfoxide) to a concentration of 0.5 mM. […] IC50 values are calculated using non-linear regression.
(§7) Using methods which are described in the above examples or well known in the art, purified, recombinant wildtype HPPD enzymes are characterized with respect to their kinetic properties and sensitivity towards HPPD inhibiting herbicides. Apparent michaelis constants (Km) and maximal reaction velocities (Vmax) are calculated by non-linear regression with the software GraphPad Prism 5 (GraphPad Software, La Jolla, USA) using a substrate inhibition model. […] Weighted means (by standard error) of Km and […] values are calculated from at least three independent experiments. […]

[1] = target: T1, Hordeum HPPD variant G407C (Hordeum vulgare, UniProt O48604, A164G/G407C/R146V/R147D/R148G); assay: HPPD activity assay, Hordeum HPPD mutant G407C; details: normalized on Hordeum wild-type HPPD
T1 construct: His (N); made in house; host or cells: E. coli BL21 (DE3)
T1 sequence (O48604 whole entry R146V/R147D/R148G/A164G/G407C): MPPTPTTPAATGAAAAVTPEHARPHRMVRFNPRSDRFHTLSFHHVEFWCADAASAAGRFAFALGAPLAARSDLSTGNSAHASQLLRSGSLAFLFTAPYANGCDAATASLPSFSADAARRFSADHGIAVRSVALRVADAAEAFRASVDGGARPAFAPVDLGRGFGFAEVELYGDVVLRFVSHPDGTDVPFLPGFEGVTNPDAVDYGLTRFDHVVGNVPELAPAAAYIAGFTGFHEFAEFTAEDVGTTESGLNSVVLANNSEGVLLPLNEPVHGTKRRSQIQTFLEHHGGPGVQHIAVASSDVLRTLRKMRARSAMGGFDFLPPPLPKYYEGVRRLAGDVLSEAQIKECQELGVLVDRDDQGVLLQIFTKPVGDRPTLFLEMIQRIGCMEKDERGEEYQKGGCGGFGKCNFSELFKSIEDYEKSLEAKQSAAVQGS
Protocol: as §1, §2
as §3, with “Thus, final inhibitor concentrations range from 200 μM to 2.5 nM or from 5 μM to 63 pM, respectively.” left out
as §4
(§8) The assay mixture can contain 150 mM potassium phosphate buffer pH 7.0, 50 mM L-ascorbic acid, 100 μM Catalase (Sigma-Aldrich), 1 μM FeSO4 and 0.2 units of purified HPPD enzyme in a total volume of 505 μl. 1 unit is defined as the amount of enzyme that is required to produce 1 nmol of HGA per minute at 20° C.
(§9) Inhibitors are dissolved in DMSO (dimethylsulfoxide) to a concentration of 0.5 mM. From this stock solution serial five-fold dilutions are prepared in DMSO, which are used in the assay. The respective inhibitor solution accounts for 1% of the assay volume. […] Activities are normalized by setting the uninhibited enzyme activity to 100%. IC50 values are calculated using non-linear regression.
(§10) Purified, mutant HPPD enzymes are obtained by the methods described above. Dose response and kinetic measurements are carried out using the described HPPD activity assay. Apparent michaelis constants (Km) and maximal reaction velocities (Vmax) are calculated by non-linear regression with the software GraphPad Prism 5 (GraphPad Software, La Jolla, USA) using a substrate inhibition model.
(§11) Field performance of the optimized HPPD enzyme, which is used as a herbicide tolerance trait may depend not only on its lack of sensitivity towards HPPD inhibiting herbicides but also on its activity. To assess the potential performance of a herbicide tolerance trait a tolerance index (TI) is calculated using the following formula: […]
(§12) Easy comparison and ranking of each trait is enabled by normalizing tolerance indexes on Arabidopsis or Hordeum wild-type HPPD.

[2] = target: T2, Hordeum HPPD variant L320N (Hordeum vulgare, UniProt O48604, A164G/L320N/R146V/R147D/R148G); assay: HPPD activity assay, Hordeum HPPD mutant L320N; details: normalized on Hordeum wild-type HPPD
T2 construct: His (N); made in house; host or cells: E. coli BL21 (DE3)
T2 sequence (O48604 whole entry R146V/R147D/R148G/A164G/L320N): as the sequence (O48604 whole entry R146V/R147D/R148G/A164G/G407C) above, with L320N, C407G counted along it
Protocol: as §1, §2
as §3, with “Thus, final inhibitor concentrations range from 200 μM to 2.5 nM or from 5 μM to 63 pM, respectively.” left out
as §4, §8, §9, §10, §11, §12

[3] = target: T3, Hordeum HPPD variant L353M, P321R, V212I (Hordeum vulgare, UniProt O48604, L353M/P321R/V212I); assay: HPPD activity assay, Hordeum HPPD mutant L353M, P321R, V212I; details: normalized on Hordeum wild-type HPPD
T3 construct: His (N); made in house; host or cells: E. coli BL21 (DE3)
T3 sequence (O48604 whole entry R146V/R147D/R148G/A164G/V212I/P321R/L353M): as the sequence (O48604 whole entry R146V/R147D/R148G/A164G/G407C) above, with V212I, P321R, L353M, C407G counted along it
Protocol: as §1, §2
as §3, with “Thus, final inhibitor concentrations range from 200 μM to 2.5 nM or from 5 μM to 63 pM, respectively.” left out
as §4, §8, §9, §10, §11, §12

[4] = target: T4, Hordeum HPPD variant L353M, P321R, V212I, L334E (Hordeum vulgare, UniProt O48604, L334E/L353M/P321R/V212I); assay: HPPD activity assay, Hordeum HPPD mutant L353M, P321R, V212I, L334E; details: normalized on Hordeum wild-type HPPD
T4 construct: His (N); made in house; host or cells: E. coli BL21 (DE3)
T4 sequence (O48604 whole entry R146V/R147D/R148G/A164G/V212I/P321R/L334E/L353M): as the sequence (O48604 whole entry R146V/R147D/R148G/A164G/G407C) above, with V212I, P321R, L334E, L353M, C407G counted along it
Protocol: as §1, §2
as §3, with “Thus, final inhibitor concentrations range from 200 μM to 2.5 nM or from 5 μM to 63 pM, respectively.” left out
as §4, §8, §9, §10, §11, §12

[5] = target: T5, Hordeum HPPD variant V212L (Hordeum vulgare, UniProt O48604, A164G/R146V/R147D/R148G/V212L); assay: HPPD activity assay, Hordeum HPPD mutant V212L; details: normalized on Hordeum wild-type HPPD
T5 construct: His (N); made in house; host or cells: E. coli BL21 (DE3)
T5 sequence (O48604 whole entry R146V/R147D/R148G/A164G/V212L): as the sequence (O48604 whole entry R146V/R147D/R148G/A164G/G407C) above, with V212L, C407G counted along it
Protocol: as §1, §2
as §3, with “Thus, final inhibitor concentrations range from 200 μM to 2.5 nM or from 5 μM to 63 pM, respectively.” left out
as §4, §8, §9, §10, §11, §12

[6] = target: T6, Hordeum HPPD variant L320H, P321A (Hordeum vulgare, UniProt O48604, L320H/P321A); assay: HPPD activity assay, Hordeum HPPD mutant L320H, P321A; details: normalized on Hordeum wild-type HPPD
T6 construct: His (N); made in house; host or cells: E. coli BL21 (DE3)
T6 sequence (O48604 whole entry R146V/R147D/R148G/A164G/L320H/P321A): as the sequence (O48604 whole entry R146V/R147D/R148G/A164G/G407C) above, with L320H, P321A, C407G counted along it
Protocol: as §1, §2
as §3, with “Thus, final inhibitor concentrations range from 200 μM to 2.5 nM or from 5 μM to 63 pM, respectively.” left out
as §4, §8, §9, §10, §11, §12

Alopecurus HPPD = assay: HPPD activity assay, Alopecurus HPPD; details: normalized on Arabidopsis wild-type HPPD
Protocol: as §1, §2, §3, §4, §5, §6, §7

Sorghum HPPD = assay: HPPD activity assay, Sorghum HPPD; details: normalized on Arabidopsis wild-type HPPD
Protocol: as §1, §2, §3, §4, §5, §6, §7

Compound | Normalized tolerance index TI (Rhodococcus HPPD2) | Normalized tolerance index TI [1] | Normalized tolerance index TI [2] | Normalized tolerance index TI [3] | Normalized tolerance index TI [4] | Normalized tolerance index TI [5] | Normalized tolerance index TI [6] | Normalized tolerance index TI (Alopecurus HPPD) | Normalized tolerance index TI (Sorghum HPPD)
COCCOCc1c(Cl)ccc(C2=C(O)c3ncccc3C(C)(C)S2(=O)=O)c1Cl [Inhibitor 3, 7-[2,4-dichloro-3-(2-methoxyethoxymethyl)phenyl]-5,5-dimethyl-6,6-dioxo-thiopyrano[4,3-b]pyridin-8-ol] | 2.1 | 2.4 | 1.9 | 1.9 | 2.1 | 0.7 | 4.8 |  | 
CC1=NOC(c2c(Cl)ccc(C3=C(O)c4ncccc4C(C)(C)S3(=O)=O)c2Cl)C1 (stereo not shown) [Inhibitor 1, 7-[2,4-dichloro-3-(3-methyl-4,5-dihydroisoxazol-5-yl)phenyl]-5,5-dimethyl-6,6-dioxo-thiopyrano[4,3-b]pyridin-8-ol] | 73 | 2.7 | 2 | 2.2 | 2.2 | 0.8 | 5.2 | 2.5 | 2.1
CC1(C)c2cccnc2C(O)=C(c2ccc(Cl)nc2Cl)S1(=O)=O [Inhibitor 2, 7-(2,6-dichloro-3-pyridyl)-5,5-dimethyl-6,6-dioxo-thiopyrano[4,3-b]pyridin-8-ol] | 11.4 | 2 | 1.7 | 1.5 | 1.9 | 1.1 | 2.5 | 1.4 | 1.2
